Literature values as cited in patent US20060058387A1, “Composition and method for treating skin conditions” (priority 2004, published 2006).
Blank lines part the entries; values can stand above or below the molecule they belong to.

Tests used:
[1] = children, dosage intakes of 200-800 mg/kg
[2] = test system: interstitial cystitis; settings: bladder instillations of a 50% aqueous solution

Molecule: C[N+](C)(C)CC(O)CC(=O)[O-] (stereo not drawn) [carnitin, γ-Trimethyl-β-hydroxybutyrobetain]
side effects [1]: No side effects were observed

binding to plasma proteins (in vivo): highly bound
terminal elimination half-life (in vivo): 30 to 120 min
oral bioavailability (oral): about 50%
time to peak plasma concentrations (oral administration): 1 to 2 h
Molecule: CC1=C(/C=C/C(C)=C/C=C/C(C)=C/C(=O)O)C(C)(C)CCC1 [tretinoin, all-trans retinoic acid]

Molecule: Sulphinyl-bis-methane [DMSO]
effect on symptoms of interstitial cystitis [2]: appear to alleviate symptoms
